Source: patent US20250230138A1, “COMPOUNDS HAVING A T-STRUCTURE FORMED BY AT LEAST FOUR CYCLES FOR USE IN THE TREATMENT OF CANCER AND OTHER INDICATIONS” (TheRas, Inc., priority 2022, published 2025)

Columns and labels:
[1] = biological target: Cys242 in human PIK3CA (157-299) (Homo sapiens (Human), UniProt P42336); test: Covalent modification assay using MALDI-TOF MS; type: biochemical; settings: 4 h reaction time point; 3.33 μM protein target, 1:7.5 protein to compound ratio (compounds 1-852)
Outline: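 PIK3CA (157-299) at 3.33 μM or 1 μM in 20 mM HEPES, 150 mM NaCl, 2 mM MgCl2, pH 7.3 was incubated with compound (from 10 mM DMSO stocks) in the dark at room temperature for 15 min, 30 min, 2 h or 4 h. Linear-mode MALDI-TOF peak heights gave percent modification.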

[2] = system: pAKT (Ser473) in 282 human tumor cell lines; test: pAKT (Ser473) HTRF in panel of 282 human tumor cell lines; type: cell-based; settings: 4 hours of treatment, Compound 44 or Compound 58; for screened KRAS G12X cell lines that are responders (pAKT IC50<100 nM): 29 of 50 KRAS G12X cell lines; for screened cell lines that are responders (pAKT IC50<100 nM): 105 of 282 cell lines
Description: The pAKT inhibition of Compound 44 or Compound 58 in a diverse panel of 282 human tumor cell lines from different cancer indications with varied genetic backgrounds was evaluated to determine factors that may influence sensitivity and resistance (FIG. 2A). PI3K pathway signaling in a 2D culture system was assessed by measuring pAKT (Ser473) protein levels following 4 hours of treatment with nine concentrations of Compound 44 or Compound 58 by homogeneous time resolved fluorescence (HTRF). The pAKT IC50 of each cell line was calculated using GraphPad prism software. 105 cell lines had pAKT IC50<100 nM and were considered sensitive to Compound 44 or Compound 58. […] Further, 29 or 50 (58%) of screen KRAS G12X cell lines are responders.

[3] = system: pAKT in JIMT-1 cells; test: pAKT IC50 in JIMT-1 cancer cell line; type: cell-based; settings: Homo sapiens; JIMT-1, breast; HER2 amplification, PIK3CA C420R
Description: (§1) The pAKT inhibition of Compound 44 or Compound 58 in a diverse panel of 282 human tumor cell lines from different cancer indications with varied genetic backgrounds was evaluated to determine factors that may influence sensitivity and resistance (FIG. 2A). PI3K pathway signaling in a 2D culture system was assessed by measuring pAKT (Ser473) protein levels following 4 hours of treatment with nine concentrations of Compound 44 or Compound 58 by homogeneous time resolved fluorescence (HTRF). The pAKT IC50 of each cell line was calculated using GraphPad prism software.

[4] = system: pAKT in FaDu cells; test: pAKT IC50 in FaDu cancer cell line; type: cell-based; settings: Homo sapiens, head and neck, HER3 D297H
Description: as §1

[5] = system: pAKT in A431 cells; test: pAKT IC50 in A431 cancer cell line; type: cell-based; settings: Homo sapiens, A-431; A431, skin squamous cell; EGFR amplification
Description: as §1

Sequence of Cys242 in human PIK3CA (157-299) (P42336 157-299): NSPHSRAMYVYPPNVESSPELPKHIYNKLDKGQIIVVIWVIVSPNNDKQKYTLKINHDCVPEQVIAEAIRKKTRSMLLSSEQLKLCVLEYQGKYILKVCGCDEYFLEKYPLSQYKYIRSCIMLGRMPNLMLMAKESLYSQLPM

| Structure (SMILES) | % of modification [1] | further results |
| --- | --- | --- |
| C=CC(=O)N1CCCC(n2cc(-c3nc(-c4ccc5c(c4)CCNC5)c4ccsc4c3-c3ccc(F)cc3OCCOC)cn2)C1 (centres unmarked) [compound 31] | A (percent of modification of PIK3CA protein ≥75%) |  |
| C=CC(=O)Nc1cccc(-c2nc(-c3ccc4c(c3)CNC(=O)C4)c3ccsc3c2-c2ccc(F)cc2OCCOC)c1 [compound 51] | A (percent of modification of PIK3CA protein ≥75%) |  |
| C=CC(=O)Nc1cccc(-c2nc(-c3ccc4c(c3)CCNC4)c3ccsc3c2-c2ccc(F)cc2OCCOC)c1 [Compound 12, N-[3-[7-[4-fluoro-2-(2-methoxyethoxy)phenyl]-4-(1,2,3,4-tetrahydroisoquinolin-6-yl)thieno[3,2-c]pyridin-6-yl]phenyl]prop-2-enamide] | A (percent of modification of PIK3CA protein ≥75%) |  |
| C=CC(=O)N1CC[C@H](n2cc(-c3nc(-c4ccc5c(c4)CCNC5)c4ccsc4c3-c3ccc(F)cc3OCCOC)cn2)C1 [compound 47] | A (percent of modification of PIK3CA protein ≥75%) |  |
| C=CC(=O)N1CCc2nc(-c3nc(-c4ccc5c(c4)CCNC5)c4ccsc4c3-c3ccc(F)cc3OCCOC)sc2C1 [Compound 58, 1-[2-[7-[4-fluoro-2-(2-methoxyethoxy)phenyl]-4-(1,2,3,4-tetrahydroisoquinolin-6-yl)thieno[3,2-c]pyridin-6-yl]-6,7-dihydro-4H-thiazolo[5,4-c]pyridin-5-yl]prop-2-en-1-one] | A (percent of modification of PIK3CA protein ≥75%) | screened KRAS G12X cell lines that are responders (pAKT IC50<100 nM) [2]: 58%; screened cell lines that are responders (pAKT IC50<100 nM) [2]: 37%; IC50 [3]: 51 nM; IC50 [4]: 78 nM; IC50 [5]: 39 nM |
| C=CC(=O)N1CCc2ccc(-c3nc(-c4ccc5c(c4)CCNC5)c4ccsc4c3-c3ccc(F)cc3OCCOC)cc2C1 [compound 42] | A (percent of modification of PIK3CA protein ≥75%) |  |
| C=CC(=O)N1CC(n2cc(-c3nc(-c4ccc5c(c4)CCNC5)c4ccsc4c3-c3ccc(F)cc3OCCOC)cn2)C1 [Compound 44, 1-[3-[4-[7-[4-fluoro-2-(2-methoxyethoxy)phenyl]-4-(1,2,3,4-tetrahydroisoquinolin-6-yl)thieno[3,2-c]pyridin-6-yl]pyrazol-1-yl]azetidin-1-yl]prop-2-en-1-one] | A (percent of modification of PIK3CA protein ≥75%) | screened KRAS G12X cell lines that are responders (pAKT IC50<100 nM) [2]: 58%; screened cell lines that are responders (pAKT IC50<100 nM) [2]: 37% |
